This is an account of results in patent US11059821B2, “1H-pyrrolo[2,3-c]pyridin-7(6H)-ones and pyrazolo[3,4-c]pyridin-7(6H)-ones as inhibitors of BET proteins” (Incyte Corporation, priority 2014, dated 2021).

As a reminder, the IC50 is the point on the concentration scale where inhibition reaches its midpoint. Read a low IC50 as greater potency.

Bounds are passed on as bounds.

In the experiment the test system is KMS.12.BM cell line (human myeloma). Kind of experiment: KMS.12.BM cell viability assay. The format is cell-based. Conditions: 72 h, 3 days, ATP quantitation (Cell Titer-GLO), concentration for 50% cell death. As for the experimental part: KMS.12.BM cell line (human myeloma) was purchased from JCRB (Osaka, Japan) and maintained in RPMI with 10% FBS culture medium. To measure the cytotoxic activity of the compounds through ATP quantitation, the KMS. 12.BM cells are plated in the RPMI culture medium at 5000 cells/well/per 100 μL into a 96-well polystyrene clear black tissue culture plate (Greiner-bio-one through VWR, NJ), in the presence or absence of a concentration range of test compounds. After 3 days, […] Cell Titer-GLO Luminescent (Promega, Madison, Wis.) cell culture agent is added to each well for 10 minutes at room temperature to stabilize the luminescent signal. This determines the number of viable cells in culture based on quantitation of the ATP present, which signals the presence of metabolically active cells. Luminescence is measured with the Top Count 384 (Packard Bioscience through Perkin Elmer, Boston, Mass.). Compound inhibition is determined relative to cells cultured with no drug and the IC50 is reported as the compound concentration required for 50% cell death.
For orientation: Cellular ATP, detected with luciferase, serves as a proxy for viable cell number.

Take `Cn1cc(-c2cc(S(C)(=O)=O)cc3c2OC(c2ccccc2)C(=O)N3)c2cc[nH]c2c1=O` (stereo not shown) [Example 46, 8-(6-methyl-7-oxo-6,7-dihydro-1H-pyrrolo[2,3-c]pyridin-4-yl)-6-(methylsulfonyl)-2-phenyl-2H-1,4-benzoxazin-3(4H)-one]: the 50% inhibitory concentration (IC50) was no more than 1000 nM.
With `CC(=O)c1cc2c(c(-c3cn(C)c(=O)c4[nH]ccc34)c1)OC(C(C)C)C(=O)N2` (stereo not shown) [Example 49, 6-acetyl-2-isopropyl-8-(6-methyl-7-oxo-6,7-dihydro-1H-pyrrolo[2,3-c]pyridin-4-yl)-2H-1,4-benzoxazin-3(4H)-one] the figure was no more than 1000 nM.
With `CC(=O)c1cc2c(c(-c3cn(C)c(=O)c4[nH]ccc34)c1)OC(C)(C)C(=O)N2` [Example 80, 6-acetyl-2,2-dimethyl-8-(6-methyl-7-oxo-6,7-dihydro-1H-pyrrolo[2,3-c]pyridin-4-yl)-2H-1,4-benzoxazin-3(4H)-one] the figure was no more than 1000 nM; with `CC(=O)c1cc(-c2cn(C)c(=O)c3[nH]ccc23)c2c(c1)N(C)C(=O)C(C)(C)O2` [Example 82, 6-acetyl-2,2,4-trimethyl-8-(6-methyl-7-oxo-6,7-dihydro-1H-pyrrolo[2,3-c]pyridin-4-yl)-2H-1,4-benzoxazin-3(4H)-one], no more than 1000 nM.
